# From patent publication EP4818187A1, “COMPOUND AND USE THEREOF” (Ganzhou Hemay Pharmaceutical, Co., Ltd, priority 2023, dated 2025)
# Experiments:
# [1] = system: BxPC-3 (human pancreatic cancer in situ); assay: In vitro inhibitory effect against human tumor cells (MTT or SRB); assay type: cell-based; settings: BXPC-3, 72 h, BxPC-3, test method printed MTT (head: SRB), 3 days
# [2] = system: human gastric cancer NCI-N87; assay: Biological Example 3: in vivo xenograft model of human gastric cancer NCI-N87; set-up: species or system Balb/c-nu nude mice; settings: nude mice
# Description: First, the xenograft model of human gastric cancer NCI-N87 was established subcutaneously in nude mice by inoculation with a cell-matrigel mixture. When the xenograft tumor grew to a volume of 100-300 mm^3 and maintained stable growth, the experimental animals were randomly grouped using remainder method based on the tumor volume and administered with drugs. The tumor volume was measured 2 to 3 times every week. After the dosing period was completed, the experimental animals were killed, and the subcutaneous tumors were excised and weighed. The anti-tumor activity of the drug in this model was evaluated based on relevant data of the tumor volumes and the tumor weights. Table 8: List of experimental animal groups and dosage regimens
# Calculation formula of the tumor volume: volume=0.5× long diameter × short diameter^2. Relative tumor volume(RTV): RTV = Vt/ V0 [formula]
# V0 is the tumor volume measured at the time of grouping for dosing (i.e., d0), and Vt is the tumor volume measured each time. Relative tumor proliferation rate(T/C): T/C = TRTV /CRTV × 100% [formula]
# T is the mean RTV of the test compound, and C is the mean RTV of the model control group. [formula] Body weight change percentage = Wn /W0 × 100% [formula]
# Wn: mean body weight of each group of experimental animals on day n, and W0: mean body weight of each group of experimental animals on day 0.
# The purchased experimental animals were subjected to balanced feeding for 3 days. A xenograft model was established in nude mice by inoculation with a cell-matrigel mixture: conventionally cultured NCI-N87 cells in the logarithmic growth phase were sampled, digested, collected, and adjusted with PBS to a cell density of 6×10^7 cells/mL. In an ice water bath, the cell suspension was slowly added to an equal volume of matrigel, the system was fully mixed, and then the xenograft model was established by subcutaneous inoculation in the right armpit of male nude mice, with 0.15 mL/mouse and a cell inoculum size of approximately 4.5 million cells/mouse.
# The tumor growth of the model animals was regularly observed. When the mean tumor volume of the model nude mice reached about 100-300 mm^3, the experimental animals were randomly grouped using the remainder method based on the tumor volume, and administered with drugs. The day on which the animals were grouped was day 0. After grouping, drugs were administered to each group according to Table 8. The dosage or dosing period can be appropriately adjusted based on the tumor growth and the animal state. After administration, the tumor volumes of the experimental animals were measured 2-3 times every week until the experiment was completed. After the dosing period was completed, the experimental animals were killed, and the subcutaneous tumors were excised and weighed. The anti-tumor activity of each compound in this model was evaluated based on relevant data of the tumor volumes and tumor weights. Table 9: Effect on growth of xenograft model of human gastric cancer NCI-N87
# The test was performed based on the dosage regimen in Table 10, following the method in Biological Example 2. Table 10: List of dosage regimens
# [3] = system: NCI-N87 (human gastric cancer cell); assay: In vitro inhibitory effect against human tumor cells (MTT); assay type: cell-based; settings: NCI-N87, 72 h, 3 days
# [4] = With addition of βGU (1 µg/well)
structure (smiles),measurement,setting,value
CC[C@H](C)[C@@H]([C@@H](CC(=O)N1CCC[C@H]1[C@H](OC)[C@@H](C)C(=O)N[C@H](C)[C@@H](OCc1ccc(O[C@@H]2O[C@H](C(=O)[O-])[C@@H](O)[C@H](O)[C@H]2O)cc1OCc1cn(CCCCCC(=O)Nc2ccc(-c3ccc(/N=N/c4ccc5c(S(=O)(=O)[O-])cc(S(=O)(=O)[O-])c(N)c5c4O)c(C)c3)cc2C)nn1)c1ccccc1)OC)N(C)C(=O)[C@@H](NC(=O)[C@H](C(C)C)N(C)C)C(C)C.[Na+].[Na+].[Na+] [Example compound 2],IC50,[1]; [4],3.9 nM
same,IC50,[1]; βGU-free,43 nM
same,Final body weight change (%),[2]; 15 mg/kg i.v. qw×2,11.4%
same,Maximum body weight change (%),[2]; 15 mg/kg i.v. qw×2,"11.4, d26%"
same,Relative volume RTV (x±S.D.),[2]; 15 mg/kg i.v. qw×2,0.48±0.07
same,T/C (%),[2]; 15 mg/kg i.v. qw×2,5.9%
same,Tumor inhibition rate (%),[2]; 15 mg/kg i.v. qw×2,96.4%
same,"Tumor weight (g, x±S.D.)",[2]; 15 mg/kg i.v. qw×2,0.048 ± 0.009 g
same,"Body weight (g, x±S.D.) End","[2]; 15 mg/kg i.v. qw×2, End",26.9 ± 1.3 g
same,"Body weight (g, x±S.D.) Start","[2]; 15 mg/kg i.v. qw×2, Start",24.2 ± 1.5 g
same,IC50,[3]; [4],5.6 nM
same,IC50,[3]; βGU-free,81 nM
